Values quoted from earlier work, collected in article PMC11035696, “Prospective de novo drug design with deep interactome learning” (Nature Communications, 2024).

Test system: PPARγ
Settings: known PPARγ activity of ChEMBL ligands; ref ChEMBL database; cited from earlier work

Structure (SMILES) | pEC50
CCCc1cc(C(F)(F)F)ccc1OCCCOc1ccc(OCC(=O)O)c(C)c1 [ChEMBL213355] | 6.82
Cc1cc(OCC[C@@H](C)Oc2ccc(Cl)cc2-c2ccccn2)ccc1CCC(=O)O [ChEMBL241299] | 6.51
